Source: US20210139484A1, “DIHYDROISOQUINOLINE-2(1H)-CARBOXAMIDE AND RELATED COMPOUNDS AND THEIR USE IN TREATING MEDICAL CONDITIONS” (GOSSAMER BIO SERVICES, INC., priority 2018, published 2021)

biological target: T1, human HPK1 protein (Homo sapiens, UniProt Q92918); assay: Human HPK1 protein TR-FRET assay; format: biochemical; conditions: 1 mM ATP, Table 19
T1 construct: recombinant human HPK1 protein (a.a. 1-346) was expressed in Sf9 insect cells; GST (N); purchased Signalchem M23-11G; host or cells: Sf9 insect cells (baculovirus)
T1 sequence (Q92918 1-346): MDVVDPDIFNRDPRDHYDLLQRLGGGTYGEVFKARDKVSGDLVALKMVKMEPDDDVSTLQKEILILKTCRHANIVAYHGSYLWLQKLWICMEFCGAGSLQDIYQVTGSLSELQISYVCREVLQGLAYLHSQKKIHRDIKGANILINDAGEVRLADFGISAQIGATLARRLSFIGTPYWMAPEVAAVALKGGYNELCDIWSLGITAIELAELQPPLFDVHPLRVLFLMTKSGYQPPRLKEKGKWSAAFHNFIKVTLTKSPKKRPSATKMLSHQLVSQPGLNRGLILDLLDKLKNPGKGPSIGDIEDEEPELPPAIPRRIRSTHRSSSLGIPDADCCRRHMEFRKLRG
Procedure: Exemplary compounds from the above Examples were tested for ability to inhibit HPK1 using a human HPK1 protein TR-FRET Assay. Assay procedures and results are described below.
N-terminal GST-tagged recombinant human HPK1 protein (a.a. 1-346) was expressed in Sf9 insect cells using a baculovirus expression system (Signalchem Catalog #M23-11G). The enzyme was diluted in assay buffer (50 mM Tris pH 7.5, 1 mM MgCl2, 0.01% NP-40 and 2 mM DTT) to obtain a 4× working solution at a concentration of 40 nM HPK1 enzyme.
A 5 μM stock of ULight™ CREBtide peptide RRPSYRK (Perkin Elmer Product No. TRF0107-M) derived from human cAMP Response Element Binding (CREB) Protein was prepared in storage buffer containing 50 mM Tris-HCl (pH 7.4), 0.9% NaCl, 0.1% BSA, and 0.05% sodium azide. The CREBtide substrate was diluted in assay buffer (50 mM Tris pH 7.5, 1 mM MgCl2, 0.01% NP-40, 2 mM DTT) with 2 mM ATP to a final concentration of 200 nM CREBtide peptide to obtain a 2× working solution of substrate. HPK1 enzyme and CREBtide substrate solutions were mixed with compounds diluted in DMSO to obtain a final concentration of enzyme, substrate, and ATP of 10 nM, 100 nM, and 1 mM, respectively, in 1% DMSO. The final assay mixture was incubated at room temperature for 60 minutes.
A solution of Europium-labeled anti-phospho-CREB (Ser133) antibody (Perkin Elmer Product No. TRF0200-M), EDTA and LANCE™ Detection Buffer (Perkin Elmer Product No. CR97-100) were added to each well to obtain a final concentration of 2 nM antibody, 10 mM EDTA and 1× LANCE buffer. The resulting mixture was incubated at room temperature for 60 minutes.
The fluorescence resonance energy transfer (FRET) signal was measured on an Envision plate reader: Excitation filter=340 nm, APC emission=665 nm, Europium emission=615 nm, dichroic mirror=D400/D630, delay time=100 μs, and integration time=200 μs. The half maximal inhibitory concentration (IC50) values for compounds were calculated from the quotient of the fluorescence signal at 665 nm divided by the fluorescence signal at 615 nm. The quotient of the fluorescence signals in the presence of DMSO without compound is set as 100 percent enzymatic activity. A 4-parameter logistic model in PRISM (GraphPad) was used to calculate the IC50 for a given compound.

Structure (SMILES) | IC50 [nM]
CCN1CCN(Cc2ccc(NC(=O)N3CCc4ccc(Oc5ccnc6[nH]ncc56)cc4C3)cc2C(F)(F)F)CC1 [II-4] | < 500
CCN1CCN(Cc2ccc(NC(=O)N3CCc4ccc(Oc5ncnc6[nH]ncc56)cc4C3)cc2C(F)(F)F)CC1 [II-5] | < 500
CCN1CCN(Cc2ccc(NC(=O)N3CCc4ccc(Oc5ncnc6[nH]cnc56)cc4C3)cc2C(F)(F)F)CC1 [II-6] | < 500
CCN1CCN(Cc2ccc(NC(=O)N3CCc4ccc(Oc5ncnn6cc(C)cc56)cc4C3)cc2C(F)(F)F)CC1 [II-7] | < 500
CCN1CCN(Cc2ccc(NC(=O)N3CCc4ccc(Oc5ncnn6cc(F)cc56)cc4C3)cc2C(F)(F)F)CC1 [II-8] | < 500
CCN1CCN(Cc2ccc(NC(=O)N3CCc4ccc(Oc5cc(NC(C)=O)ncn5)cc4C3)cc2C(F)(F)F)CC1 [II-9] | < 500
CCN1CCN(Cc2ccc(NC(=O)N3CCc4ccc(Oc5cc(NC(=O)C6CC6)ncn5)cc4C3)cc2C(F)(F)F)CC1 [II-10] | < 500
CCN1CCN(Cc2ccc(NC(=O)N3CCc4ccc(Oc5ccnc6c5CCC(=O)N6)cc4C3)cc2C(F)(F)F)CC1 [II-11] | < 500
CCN1CCN(Cc2ccc(NC(=O)N3CCc4ccc(Oc5ccnc6[nH]c(=O)ccc56)cc4C3)cc2C(F)(F)F)CC1 [II-12] | < 500
CCN1CCN(Cc2ccc(NC(=O)N3CCc4ccc(Oc5ccnc(NC)c5)cc4C3)cc2C(F)(F)F)CC1 [II-13] | < 500
CCN1CCN(Cc2ccc(NC(=O)N3CCc4ccc(Oc5ccnc(NC(C)=O)c5)cc4C3)cc2C(F)(F)F)CC1 [II-14] | < 500
CCN1CCN(Cc2ccc(NC(=O)N3CCc4ccc(Oc5ccnc(NC(=O)C6CC6)c5)cc4C3)cc2C(F)(F)F)CC1 [II-15] | < 500
CN1CCC(Oc2ccc(NC(=O)N3CCc4ccc(Oc5ncnn6cccc56)cc4C3)cc2C(F)(F)F)CC1 [II-16] | 500 to 5000
CCN1CCN(Cc2ccc(NC(=O)N3CCc4ccc(Oc5cc(Nc6ncc[nH]6)ncn5)cc4C3)cc2C(F)(F)F)CC1 [II-17] | < 500
CCN1CCN(Cc2ccc(NC(=O)N3CCc4ccc(Oc5ccnn6cccc56)cc4C3)cc2C(F)(F)F)CC1 [II-19] | < 500
CCN1CCN(Cc2ccc(NC(=O)N3CCc4ccc(Oc5ccnc6[nH]cnc56)cc4C3)cc2C(F)(F)F)CC1 [II-20] | < 500
CCN1CCN(Cc2ccc(NC(=O)N3CCc4ccc(Oc5cn[nH]c5)cc4C3)cc2C(F)(F)F)CC1 [II-21] | 500 to 5000
CCN1CCN(Cc2ccc(NC(=O)N3CCc4ccc(Oc5ccnn6cc(F)cc56)cc4C3)cc2C(F)(F)F)CC1 [II-22] | < 500
CCN1CCN(Cc2ccc(NC(=O)N3CCc4ccc(Oc5ccnn6cc(Cl)cc56)cc4C3)cc2C(F)(F)F)CC1 [II-23] | < 500
CCN1CCN(Cc2ccc(NC(=O)N3CCc4ccc(Oc5ccnn6cc(Br)cc56)cc4C3)cc2C(F)(F)F)CC1 [II-24] | < 500
CCN1CCN(Cc2ccc(NC(=O)N3CCc4ccc(Oc5ccnn6cc(-c7c[nH]cn7)cc56)cc4C3)cc2C(F)(F)F)CC1 [II-25] | < 500
CCN1CCN(Cc2ccc(NC(=O)N3CCc4ccc(Oc5ccnn6cc(-c7cnn(C)c7)cc56)cc4C3)cc2C(F)(F)F)CC1 [II-26] | < 500

More lines, now with the values ahead:

IC50 [nM] | Structure (SMILES)
< 500 | CCN1CCN(Cc2ccc(NC(=O)N3CCc4cc(C)c(Oc5ccnc6[nH]ccc56)cc4C3)cc2C(F)(F)F)CC1 [III-1]
< 500 | CCN1CCN(Cc2ccc(NC(=O)N3CCc4ccc(Oc5ccnc6[nH]ccc56)c(C)c4C3)cc2C(F)(F)F)CC1 [III-2]
< 500 | CCN1CCN(Cc2ccc(NC(=O)N3CCc4ccc(Oc5ccnc6[nH]ccc56)c(F)c4C3)cc2C(F)(F)F)CC1 [III-3]
< 500 | CCN1CCN(Cc2ccc(NC(=O)N3CCc4ccc(Oc5ccnc6[nH]c(C)cc56)cc4C3)cc2C(F)(F)F)CC1 [III-4]
< 500 | CCN1CCN(Cc2ccc(NC(=O)N3CCc4ccc(Oc5ccnc6c5CCN6)cc4C3)cc2C(F)(F)F)CC1 [III-5]
500 to 5000 | CCN1CCN(Cc2ccc(NC(=O)N3CCc4ccc(Oc5c(C)cnc6[nH]ccc56)cc4C3)cc2C(F)(F)F)CC1 [III-6]
500 to 5000 | CCN1CCN(Cc2ccc(NC(=O)N3CCc4ccc(Oc5c(Cl)cnc6[nH]ccc56)cc4C3)cc2C(F)(F)F)CC1 [III-7]
< 500 | CCN1CCN(Cc2ccc(NC(=O)N3CCc4ccc(Oc5c(F)cnc6[nH]ccc56)cc4C3)cc2C(F)(F)F)CC1 [III-8]
< 500 | CCN1CCN(Cc2ccc(NC(=O)N3CCc4c(C)cc(Oc5ccnc6[nH]ccc56)cc4C3)cc2C(F)(F)F)CC1 [III-9]
< 500 | CN1CCC(Oc2ccc(NC(=O)N3CCc4ccc(Oc5ccnc6[nH]ccc56)cc4C3)cc2C(F)(F)F)CC1 [III-11]
500 to 5000 | CCN1CCN(Cc2ccc(NC(=O)N3CCc4ccc(Oc5cc(C)nc6[nH]ccc56)cc4C3)cc2C(F)(F)F)CC1 [III-12]
500 to 5000 | CCN1CCN(Cc2ccc(NC(=O)N3CCc4ccc(Oc5ccnc6[nH]ccc56)cc4C3C)cc2C(F)(F)F)CC1 (stereo not drawn) [IV-1]
< 500 | CCN1CCN(Cc2ccc(NC(=O)N3Cc4cc(Oc5ccnc6[nH]ccc56)ccc4C(C)C3)cc2C(F)(F)F)CC1 (stereo not drawn) [IV-3]
500 to 5000 | CCN1CCN(Cc2ccc(NC(=O)N3CCc4c(C)cc(Oc5ccnc6[nH]ccc56)cc4C3C)cc2C(F)(F)F)CC1 (stereo not drawn) [IV-5]
500 to 5000 | CCN1CCN(Cc2ccc(NC(=O)N3CCc4cc(F)c(Oc5ccnc6[nH]ccc56)cc4C3C)cc2C(F)(F)F)CC1 (stereo not drawn) [IV-7]
< 500 | C[C@H]1c2cc(Oc3ccnc4[nH]ccc34)ccc2CCN1C(=O)Nc1cc(C(F)(F)F)c(OC2CCN(C)CC2)cn1 [IV-9]

IC50 [nM] | Structure (SMILES)
500 to 5000 | CCN1CCN(Cc2ccc(NC(=O)N3CCc4nc(C)c(Oc5ccnc6[nH]ccc56)cc4C3C)cc2C(F)(F)F)CC1 (stereo not drawn) [IV-10]
500 to 5000 | CCN1CCN(Cc2ccc(NC(=O)N3CCc4c(C#N)cc(Oc5ccnc6[nH]ccc56)cc4C3C)cc2C(F)(F)F)CC1 (stereo not drawn) [IV-11]
500 to 5000 | CCN1CCN(Cc2ccc(NC(=O)N3CCc4cc(C#N)c(Oc5ccnc6[nH]ccc56)cc4C3C)cc2C(F)(F)F)CC1 (stereo not drawn) [IV-12]
< 500 | CCN1CCN(Cc2ccc(NC(=O)N3CCc4cc(Br)c(Oc5ccnc6[nH]ccc56)cc4C3C)cc2C(F)(F)F)CC1 (stereo not drawn) [IV-13]
< 500 | CCN1CCN(Cc2ccc(NC(=O)N3CCc4c(F)cc(Oc5ccnc6[nH]ccc56)cc4C3C)cc2C(F)(F)F)CC1 (stereo not drawn) [IV-14]
< 500 | CCN1CCN(Cc2ccc(NC(=O)N3CCc4c(F)cc(Oc5ccnc6[nH]ccc56)cc4C3C)cc2C(F)(F)F)CC1 (stereo not drawn) [IV-15]
500 to 5000 | CCN1CCN(Cc2ccc(NC(=O)N3CCc4c(F)cc(Oc5ccnc6[nH]ccc56)cc4C3C)cc2C(F)(F)F)CC1 (stereo not drawn) [IV-16]
< 500 | CCN1CCN(Cc2ccc(NC(=O)N3Cc4cc(Oc5ccnc6[nH]c(C)cc56)ccc4C(C)C3)cc2C(F)(F)F)CC1 (stereo not drawn) [IV-17]
< 500 | CCN1CCN(Cc2ccc(NC(=O)N3Cc4cc(Oc5ccnc6[nH]c(C)cc56)ccc4C(C)C3)cc2C(F)(F)F)CC1 (stereo not drawn) [IV-18]
< 500 | CCN1CCN(Cc2ccc(NC(=O)N3Cc4cc(Oc5ccnc6[nH]c(C)cc56)ccc4C(C)C3)cc2C(F)(F)F)CC1 (stereo not drawn) [IV-19]
< 500 | CCC1CN(C(=O)Nc2ccc(CN3CCN(CC)CC3)c(C(F)(F)F)c2)Cc2cc(Oc3ccnc4[nH]ccc34)ccc21 (stereo not drawn) [IV-20]
< 500 | CCC1CN(C(=O)Nc2ccc(CN3CCN(CC)CC3)c(C(F)(F)F)c2)Cc2cc(Oc3ccnc4[nH]ccc34)ccc21 (stereo not drawn) [IV-21]
< 500 | CCC1CN(C(=O)Nc2ccc(CN3CCN(CC)CC3)c(C(F)(F)F)c2)Cc2cc(Oc3ccnc4[nH]ccc34)ccc21 (stereo not drawn) [IV-22]
< 500 | CCN1CCN(Cc2ccc(NC(=O)N3Cc4cc(Oc5ccnc6[nH]ccc56)ccc4C4(CC4)C3)cc2C(F)(F)F)CC1 [IV-23]
500 to 5000 | CCC1c2cc(Oc3ccnc4[nH]ccc34)ccc2CCN1C(=O)Nc1ccc(CN2CCN(CC)CC2)c(C(F)(F)F)c1 (stereo not drawn) [IV-24]
500 to 5000 | CCN1CCN(Cc2ccc(NC(=O)N3CCc4cc(F)c(Oc5ccnc6[nH]c(C)cc56)cc4C3C)cc2C(F)(F)F)CC1 (stereo not drawn) [IV-26]
